{
  "source": "patent US20130065888A1",
  "about": "“OPHTHALMIC FORMULATIONS AND PROCESSES FOR THEIR PREPARATION” (priority 2011, published 2013)",
  "assay": "Numerical particle size distribution by microscopical image analysis of brinzolamide suspensions made by different homogenization techniques (Example 1)",
  "type": "physicochemical",
  "conditions": "suspension in 0.05% Polysorbate 80, prior to treatment",
  "procedure": "Preferably, particle size analyses and particle size distributions of the suspension are obtained by microscopy using a particle size analyser (preferably by following US Pharmacopeia 29 <776>—Optical Microscopy).\nIn Examples 1.1, 1.2 and 1.3, brinzolamide ophthalmic suspensions were prepared by using three different homogenization techniques (high pressure homogenization in accordance with the present invention, high shear homogenization and ball milling) in order to test the effectiveness these techniques on de-agglomeration of brinzolamide particles and coating of the particles with wetting agent. Three different wetting agents were used (Polysorbate 80, Poloxamer 407 and Tyloxapol). Particle size analyses were conducted by microscopy.\nPortions of the suspension were treated separately by the following three methods (i)-(iii): • (i) high pressure homogenization (5000 psi/5 cycles using Microfluidizer® high pressure homogenizer) • (ii) high shear homogenization (8000 rpm/120 minutes (Ultra-Turrax high shear mixer) • (iii) ball milling (8.5 hours at 22-24 rpm (tumble blender; Zirconox beads: 0.7-1.2 mm)",
  "data": [
    {"molecule": "CCN[C@H]1CN(CCCOC)S(=O)(=O)c2sc(S(N)(=O)=O)cc21", "note": "[brinzolamide]", "values": [
      {"measurement": "particle size distribution of the individual brinzolamide particles, d90", "value": "≤ 3.0", "unit": "μm"},
      {"measurement": "particle size of agglomerates of brinzolamide", "value": "greater than 10 μm"}
    ]}
  ]
}
